Test results taken from patent US11691992B2 (Anacor Pharmaceuticals, Inc., priority 2017, dated 2023).

Legend:
Format in all cases: cell-based
[1] = test system: promastigote forms of L. major; test: Leishmania major promastigote growth inhibition assay (Alamar Blue); details: promastigotes, 44 hours + 4 hours Alamar Blue, read-out: IC50: I Org. promastigote Growth L. major, 2 d
Source text: Example 108. Leishmania major Promastigote Growth Inhibition Assay
The promastigote assay is a microtiter plate drug sensitivity prescreen assay used to determine antileishmanial activity of candidate drugs against promastigote forms of L. major. (Shadow et al., PLOS Neglected Tropical Diseases, 2009, e311.) Alamar Blue, or resazurin, is a non-fluorescent indicator dye that is converted to bright red-fluorescent resorufin via the activity of mitochondrial reductases. As the activity of mitochondrial reductases is reduced in cells that are dead or dying, and the intensity of the fluorescence is relative to cell number, a test compound that kills or inhibits growth of a particular target cell, such as L. major, will result in a lower production of fluorescent signal. Pre-dosed microtiter drug plates for use in the promastigote drug prescreen assay were produced using sterile 384-well black optical bottom tissue culture plates (Nunc Cat #12-565-344). Candidate drugs were diluted in dimethyl sulfoxide in four 96-well plates to either 10,000 ng/ml or 1,000 ng/ml, and 4.25 μL of diluted drug was subsequently dispensed into each well of a 384-well plate. Duplicate 384 well plates were made at each test concentration (10,000 ng/mL and 1,000 ng/mL) and amphotericin B was used as a batch control. The Tecan EVO Freedom liquid handling system (Tecan US, Inc., Durham, N.C.) was used to produce all drug assay plates and conduct all pipetting operations for this assay. L. major parasites were cultured in Schneider's medium (Lonza Cat #04-351Q) supplemented with 20% heat inactivated FBS (Invitrogen Cat #16140-089). Promastigotes in early log growth phase were harvested from culture, counted, suspended at 1.32×10^5 cells/mF and 5,000 promastigotes were dispensed into each well of the 384 well plate in a volume of 38.8 μL. The 384 well plates were subsequently incubated at 28° C. for 44 hours. 8.4 μF of Alamar Blue (Promega, Cat #G8081) was added to each well, the plates were subsequently incubated at 28° C. and 5% CO2 for 4 hours and then examined for the relative fluorescence units (RFU) per well using the Tecan Genios Plus (Tecan US, Inc., Durham, N.C.) with excitation set at 560 nm and emission set at 590 nm. The relative fluorescence from each well was used to determine the percent growth inhibition of each candidate compound tested. Compounds with 50% or greater inhibition of growth were selected for further analysis to determine IC50 values.

[2] = test system: luciferase-expressing L. major parasites developing intracellularly inside RAW 264.7 macrophages; test: Leishmania major intracellular amastigote assay in RAW 264.7 macrophages (luciferase); details: RAW264.7, 96 hours, read-out: IC50: I Org. intracellular amastigote Growth L. major, 4 d
Source text: Example 107. Assay for Leishmania major Intracellular Amastigote Assay in RAW 264.7 Macrophages
The intracellular amastigote assay is a microtiter plate drug sensitivity assay that uses the activity of luciferase as a measure of proliferation of luciferase-expressing L. major parasites developing intracellularly inside RAW 264.7 macrophages in the presence of antileishmanial drugs or experimental compounds. (Buckner, F. S., and A. J. Wilson. Am J Prop Med Hyg, 2005, 72(5): 600-605.) As the activity of luciferase and its associated luminescence after addition of the substrate, luciferin, is relative to parasite growth, a test compound that inhibits the growth of the parasite will result in a lower luminescence. The luciferase-expressing L. major parasite used in this assay is genetically modified by adding the luciferase coding region to the pLEXSY-hyg2 vector (Jena Biosciences). The luciferase expression construct was created by digesting the luciferase coding region (1.66 kbp) of pGL3-Basic (Promega) by using two restriction enzymes, NcoI/EagI, followed by electrophoretic separation of the luciferase coding region on a 1% agarose gel. The luciferase coding region was then ligated into pLEXSY-hyg2 vector (Jena Biosciences) which had previously been digested with NcoI/NotI. The vector was linearized with SwaI and subsequently gel purified prior to transfection into L. major parasites. Transfections were carried out by electroporation at 480V, 13Ω, and 500 μF (0.4 mL of 1×10^8 parasites/mL, and 0.1 mL of 10 μg DNA). Selection for transfectants was then carried out using hygromycin B (100 μg/mL). RAW 264.7 macrophages were cultured in DMEM media (ATCC Cat #30-2002) supplemented with heat-inactivated 10% FBS (Invitrogen Cat #10438-034). To begin the assay, macrophages were harvested from culture by removing all spent media, adding in 10 mL fresh media, scraping cells, and counted using Trypan Blue. The cells were resuspended in DMEM/10% HIFBS media at 2.0×10^5 cells/mL, and then dispensed in a volume of 50 μL to yield a final concentration of 10,000 macrophages/well in 384 well tissue-culture treated sterile white plates (Nunc Cat #12-565-343) using a Tecan EVO Freedom robotics system. The plates were then incubated at 37° C. overnight in 5% CO2 atmosphere for 24 hours. After overnight incubation, the media was removed from each well using the Tecan EVO Freedom robot, and L. major promastigotes were added to each well and allowed to invade the RAW macrophages. Promastigotes were cultured in Schneider's medium (Invitrogen Cat #11720-067) supplemented with 20% heat inactivated FBS. Metacyclic stage promastigotes provide the best invasion for this assay, and cultures should be grown to increase the percentage of metacyclic promastigotes for best results. Promastigotes were harvested from culture, counted, suspended at 2×10^6 promastigotes/mL in DMEM/HIFBS media, and 100,000 promastigotes were dispensed per well in a volume of 50 μL. After overnight incubation, the media was removed from each well using the Tecan Freedom EVO robot, and each well was subsequently washed three times with 40 μF of fresh DMEM/HIFBS medium to remove all extracellular promastigotes. After the third wash, 69.2 μF of DMEM/HIFBS medium was added to each well using the Tecan EVO Freedom robot. Drug plates were prepared with the Tecan EVO Freedom using sterile 96 well plates containing twelve duplicate two-fold serial dilutions of each test compound suspended in DMSO. 7.8 μF of diluted test compound was added to the 69.2 μF of media present in each well providing a 10 fold final dilution of compound. The final concentration range tested was 0.5 to 10,000 ng/ml for all assays. The plates were next incubated at 37° C. and 5% CO2 for 96 hours. After 96 hours of incubation, 7.5 μF of a luciferin solution (Caliper Fife Science) diluted to 150 μg/mF was added to each well, and the plates were incubated for 30 minutes at 37° C., in the dark. […]

[3] = test system: TdTomato-modified T. cruzi (CL strain) in Vero cells; test: In vitro IC50 measurement of T. cruzi amastigote killing using TdTomato-modified T. cruzi (CL strain); details: Trypanosoma cruzi, 72 h, fluorescence, read-out: IC50: I Org. amastigote Growth T. cruzi CL TdTomato, 3 d
Procedure: Example 112. In Vitro IC50 Measurement of T. cruzi Amastigote Killing Using TdTomato-Modified T. cruzi (CL Strain)
The T. cruzi parasites used in this assay were genetically modified to express Td Tomato fluorescent protein. Vero cells (African green monkey kidney epithelial cells) were harvested from continuous cultures using trypsin and added to the inner 60 wells of 96-well Greiner Bio One plates (plate catalog #655090) at 200 ul/well of […]. Cells were allowed to adhere for 1 h before infection with T. cruzi. T. cruzi for infection were harvested from previously-infected Vero cells, washed, pelleted and resuspended at 5×10^6/mL. 50 uL of parasites were added to each well containing Vero cells. Compounds were prepared from 5 mM stock concentrations in DMSO to final concentrations in wells ranging from 5 uM to 5 nM. Wells were provided for negative controls, lacking compounds. Plates were placed into a 37° C. incubator for 20 min, then a “Day 0” reading was taken on a Synergy H4 plate reader to record initial fluorescence levels, at 544 (excitation) and 612 nm (emission). 96-well plates were placed in Tupperware containers with wet paper towels and incubated at 37° C. incubator for 72 h. After 72 h plates were reread (Day 3 reading) and data analyzed using Excel and/or Graphpad software. Day 0 fluorescence was subtracted from Day 3 to remove input parasite fluorescence. Growth curves are generated and 50% and 90% inhibitory concentrations are determined by nonlinear regression analysis.

[4] = test system: Trypanosoma brucei rhodesiense STIB 900 strain; test: Trypanosoma brucei rhodesiense STIB 900 screening assay; details: STIB 900 bloodstream forms, 72 h, Alamar Blue, protocol of Example 114, read-out: Swiss TPH T b rhodesiense IC50
Procedure: Example 114. Trypanosoma brucei rhodesiense STIB 900 Screening Assay Procedure
The Trypanosoma brucei rhodesiense STIB 900 strain was isolated in 1982 from a human patient in Tanzania and after several mouse passages cloned and adapted to axenic culture conditions (Baltz, et al., EMBO Journal 4: 1273-1277 (1985); Thuita, et al., Acta Tropica 108: 6-10 (2008)). Minimum Essential Medium (50 μL) supplemented with 25 mM HEPES, 1 g/L additional glucose, 1% MEM non-essential amino acids (100×), 0.2 mM 2-mercaptoethanol, 1 mM Na-pyruvate and 15% heat inactivated horse serum was added to each well of a 96-well microtiter plate. Serial drug dilutions of seven 3-fold steps covering a range from 90 to 0.123 μg/mL were prepared. Then 10^4 bloodstream forms of T. b. rhodesiense STIB 900 in 50 μL was added to each well and the plate incubated at 37° C. under a 5% CO2 atmosphere for 72 h. 10 μL Alamar Blue (resazurin, 12.5 mg in 100 mL double-distilled water) was then added to each well and incubation continued for a further 2-4 h (Raz, et al., Acta Tropica 68: 139-47 (1997)). Then the plates were read with a Spectramax Gemini XS microplate fluorometer (Molecular Devices Corporation, Sunnyvale, Calif., USA) using an excitation wavelength of 536 nm and an emission wavelength of 588 nm. Data were transferred into the graphic program Softmax Pro (Molecular Devices), which calculated IC50 values.

[5] = test system: bloodstream forms of T. b. rhodesiense STIB 900; test: T. brucei rhodesiense STIB 900 growth inhibition assay; details: Trypanosoma brucei; bloodstream forms, 72 h, Alamar Blue; protocol of Example 110; read-out: IC50: I Org. Growth T. brucei rhodesiense STIB 900, 3 d
Source text: Example 110. T. brucei rhodesiense STIB 900 Growth Inhibition Assay
The parasite strain used in this assay was isolated in 1982 from a human patient in Tanzania and after several mouse passages cloned and adapted to axenic culture conditions, ((a) Baltz, T., D. Baltz, C. Giroud, and J. Crockett. EMBO Journal, 1985, 4:1273-1277. (b) Thuita, J. K., S. M. Karanja, T. Wenzler, R. E. Mdachi, J. M. Ngotho, J. M. Kagira, R. Tidwell, and R. Brun. Acta Tropica 2008, 108:6-10.) Minimum Essential Medium (50 μl) supplemented with 25 mM HEPES, 1 g/l additional glucose, 1% MEM non-essential amino acids (100×), 0.2 mM 2-mercaptoethanol, 1 mM Na-pyruvate and 15% heat inactivated horse serum was added to each well of a 96-well microtiter plate. Serial drug dilutions of seven 3-fold dilution steps covering a range from 90 to 0.123 μg/ml were prepared. Then 10^4 bloodstream forms of T. b. rhodesiense STIB 900 in 50 μl was added to each well and the plate incubated at 37° C. under a 5% CO2 atmosphere for 72 h. 10 μl Alamar Blue (resazurin, 12.5 mg in 100 ml double-distilled water) was then added to each well and incubation continued for a further 2-4 h, (Raz, B., M. Iten, Y. Grether-Buhler, R. Kaminsky, and R. Brun. Acta Trap 1997, 68:139-47.) Then the plates were read with a Spectramax Gemini XS microplate fluorometer (Molecular Devices Cooperation, Sunnyvale, Calif., USA) using an excitation wave length of 536 nm and an emission wave length of 588 nm. Data were analyzed using the microplate reader software Softmax Pro (Molecular Devices Cooperation, Sunnyvale, Calif., USA).

[6] = test system: L. infantum MHOM/MA(BE)/67 amastigotes in primary peritoneal mouse macrophages; test: Leishmania infantum intracellular amastigote assay in mouse macrophages; details: Macrophage, 120 h, amastigotes in primary peritoneal mouse macrophages, 5 d, Giemsa staining, read-out: Inhibition of Organism Growth in Leishmania infantum MHOM/MA/BE/67, 5 d
Procedure: Example 111. Leishmania infantum Intracellular Amastigote Assay in Mouse Macrophages
L. infantum MHOM/MA(BE)/67 amastigotes were collected from the spleen of an infected donor hamster and used to infect primary peritoneal mouse macrophages. (Kaiser, M., Maes, L., Tadoori, L. P., Spangenberg, T., Ioset, J.-R. J. Biomol. Screen. 2015 20(5), 634-35.) To determine in vitro antileishmanial activity, 3×10^4 macrophages were seeded in each well of a 96-well plate. Culture medium was RPMI-1640 supplemented with L-glutamine (20 mM), 16.5 mM sodium hydrogen carbonate, and 10% fetal calf serum (FCS). After 2 d of outgrowth, 5×10^5 amastigotes/well were added and incubated for 2 h at 37° C. Prediluted samples to be tested were subsequently added, and the plates were further incubated for 5 d at 37° C. and 5% CO2. Total parasite burdens in the well were microscopically assessed after Giemsa staining and expressed as a percentage of the total burden in the blank controls without compound. In treated wells with high amastigote burdens, an overall estimate of the total burden per well was made without discrimination between the number of infected macrophages and the number of amastigotes per infected cell. In treated wells with low burdens, exact counting was performed. The 50% inhibitory concentrations (IC50s) were then generated for each dose response test using GraphPad Prism (GraphPad Software Inc., San Diego, Calif.) using the nonlinear regression (sigmoidal dose-response/variable slope) equation.

Row | IC50 [4] | IC50 [6] | Compound | IC50 [1] | IC50 [2] | IC50 [3] | IC50 [5]
1 |  |  | Cc1c(C(=O)Nc2ccc3c(c2)B(O)OC32CCC2)nnn1-c1ccccn1 [Example 27, N-(1-hydroxy-1H-spiro[benzo[c][1,2]oxaborole-3,1′-cyclobutan]-6-yl)-5-methyl-1-(pyridin-2-yl)-1H-1,2,3-triazole-4-carboxamide] | 0.6 to 2.5 µM | 1.1 to 9.9 µM | < 0.6 µM | 
2 | < 0.1 µM | 3 to 19.9 µM | Cn1nc(C(=O)Nc2ccc3c(c2)B(O)OC3(C)C)nc1-c1ccccc1 [Example 103, N-(1-hydroxy-3,3-dimethyl-1,3-dihydrobenzo[c][1,2]oxaborol-6-yl)-1-methyl-5-phenyl-1H-1,2,4-triazole-3-carboxamide] |  |  |  | 0.31 to 10 µM
